# Data from PMC9643456, “Matching amino acids membrane preference profile to improve activity of antimicrobial peptides” (Communications Biology, 2022).
# Where two headings read alike, the source gives them in different places. Square brackets hold non-standard residues; d marks the D form. Ends that are not written are not given here. Peptide text beside a SMILES is read from it. Trp(2,5,7-tBu3) = CC(C)(C)c1cc(C(C)(C)C)c2[nH]c(C(C)(C)C)c(C[C@H](N)C(=O)O)c2c1
# What was measured:
# MDR A. baumannii = assay: microbe, parasite or virus in culture; conditions: for Minimum inhibitory concentrations, MDR A. baumannii: CLSI broth microdilution, CAMHB with 50 mg/L Ca2+, 10 mg/L Mg2+, 5 × 10^5 CFU/ml, 18 h 37 °C, triplicate, strain ATCC BAA-1605
# Description: (§1) MDR Pseudomonas aeruginosa (CCARM 2180) was purchased from the Culture Collection of Antimicrobial Resistance Microbes (Seoul, Republic of Korea). MDR Acinetobacter baumannii (ATCC BAA-1605) and MDR Enterococcus faecalis (ATCC 51575) were purchased from the American Type Culture Collection (Manassas, VA, USA). MDR Staphylococcus aureus (KCCM 40510) was purchased from the Korean Culture Center of Microorganisms (Seoul, Republic of Korea). S. aureus (KCTC 1621) was purchased from the Korean Collection for Type Cultures. A. baumannii (KCCM 40203) was purchased from the Korean Culture Center of Microorganisms (Seoul, Republic of Korea).
# (§2) To assess antimicrobial activity, the MIC50 and MIC90 were measured using broth microdilution following CLSI guidelines. […] Each experiment was performed in triplicate. Meropenem (Sigma, Darmstadt, Germany) and colistin were used as control antibiotics. Cation-adjusted Mueller–Hinton broth (CAMHB) (Becton, Dickinson and Company, Franklin Lakes, USA) with supplied calcium (50 mg/L) and magnesium (10 mg/L) was used for the CLSI-test condition. Bacteria in midlog phase and peptides were separately diluted in CAMHB. The bacteria and peptide solutions were then mixed in 96-well polyethylene plates (SPL, Gyeonggi-do, Korea) and incubated for 18 h at 37 °C. The final concentration for bacteria was 5 × 10^5 CFU/ml. […] The MIC was defined to be the lowest concentration of peptide without visible turbidity by comparing with control antibiotics with the unaided eye. […] Each experiment was performed in triplicate. MICs in albumin and acetic acid solutions were measured using the same protocol but with 0.2% bovine serum albumin (Bovogen, Keilor, Australia), 0.01% acetic acid (Merck, New Jersey, USA), and CAMHB with both calcium and magnesium. In addition, MICs used in the antibiotic resistance acquisition test, the outer–inner membrane permeation test, and the transmembrane potential test and for FE-SEM were individually determined. The final bacterial concentrations used were as follows: for resistance acquisition, optical density (OD) 0.01; for outer–inner membrane permeability assays (LB), OD 0.1; for the transmembrane potential test, 1 × 10^8 CFU/ml (OD 0.171); […]. Inhibitory activity unidentifiable by direct observation was determined by counting the CFUs. Each experiment was performed at least twice.
# MDR E. faecalis = assay: microbe, parasite or virus in culture; conditions: for Minimum inhibitory concentrations, MDR E. faecalis: CLSI broth microdilution, CAMHB with 50 mg/L Ca2+, 10 mg/L Mg2+, 5 × 10^5 CFU/ml, 18 h 37 °C, triplicate, strain ATCC 51575
# Description: as §1, §2
# MDR P. aeruginosa = assay: microbe, parasite or virus in culture; conditions: for Minimum inhibitory concentrations, MDR P. aeruginosa: CLSI broth microdilution, CAMHB with 50 mg/L Ca2+, 10 mg/L Mg2+, 5 × 10^5 CFU/ml, 18 h 37 °C, no visible turbidity, triplicate, strain CCARM 2180
# Description: as §1, §2
# MDR S. aureus = assay: microbe, parasite or virus in culture; conditions: for Minimum inhibitory concentrations, MDR S. aureus: CLSI broth microdilution, CAMHB with 50 mg/L Ca2+, 10 mg/L Mg2+, 5 × 10^5 CFU/ml, 18 h 37 °C, triplicate, strain KCCM 40510
# Description: as §1, §2
# human red blood cells = assay: Hemolytic activity; assay type: cell-based
# How it was run: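 Peptides (100 μM down to 0.78 μM) were incubated with 4% final human erythrocytes in PBS for 18 h at 37 °C. Supernatant absorbance at 540 nm after centrifugation was scaled to 1% Triton X-100 (100%) and no peptide (0%); melittin served as positive control; triplicate runs.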
# [1] = CAMHB plus 0.2% bovine serum albumin and 0.01% acetic acid, values marked * in Table 2
Molecule,"Minimum inhibitory concentrations, MDR A. baumannii (MDR A. baumannii)","Minimum inhibitory concentrations, MDR E. faecalis (MDR E. faecalis)","Minimum inhibitory concentrations, MDR P. aeruginosa (MDR P. aeruginosa)","Minimum inhibitory concentrations, MDR S. aureus (MDR S. aureus)","Hemolysis percent, 25 μM (human red blood cells)","Hemolysis percent, 50 μM (human red blood cells)","Hemolysis percent, 100 μM (human red blood cells)","MIC in 0.2% albumin and 0.01% AcOH added CLSI standard condition, MDR A. baumannii (MDR A. baumannii; [1])","MIC in 0.2% albumin and 0.01% AcOH added CLSI standard condition, MDR E. faecalis (MDR E. faecalis; [1])","MIC in 0.2% albumin and 0.01% AcOH added CLSI standard condition, MDR P. aeruginosa (MDR P. aeruginosa; [1])","MIC in 0.2% albumin and 0.01% AcOH added CLSI standard condition, MDR S. aureus (MDR S. aureus; [1])","Hemolysis percent, 50 μM (human red blood cells; red cells of human, 18 h, 50 μM)","Hemolysis percent, 25 μM (human red blood cells; red cells of human, 18 h, 25)","Hemolysis percent, 100 μM (human red blood cells; red cells of human, 18 h, 100)","Hemolysis percent, 50 μM (human red blood cells; red cells of human, 18 h, 50)","actual MIC as weight/volume concentration (MDR A. baumannii; molar MIC converted with the molecular weight (melittin 2.85 kDa, WCopW5 1.47 kDa))"
"NH2 wF l l w i g l r k k r CONH2 [WCopW18, WCopW analog]",1.25 µM,2.5 µM,5 µM,1.25 µM,1.89%,4.52%,6.74%,–,–,–,–,–,–,–,–,–
WLLLLLRRR-NH2 [AcWL-1],2.5 µM,10 µM,> 20 µM,10 µM,–,–,–,1.25 µM,5 µM,> 20 µM,5 µM,20.52 ±1.25%,11.89 ±1.24%,36.35 ±3.00%,–,–
CC[C@@H](C)[C@@H](NC(=O)[C@@H](Cc1c[nH]c2ccccc12)NC(=O)[C@@H](C)NC(=O)[C@@H](C)NC(=O)[C@H](N)Cc1c[nH]c2ccccc12)C(=O)NCC(=O)N[C@H](CC(C)C)C(=O)N[C@H](CCCNC(=N)N)C(=O)N[C@H](CCCCN)C(=O)N[C@H](CCCCN)C(=O)N[C@H](CCCNC(=N)N)C(N)=O [WCopW20] (H-[dW][dA][dA][dW][dI]G[dL][dR][dK][dK][dR]-NH2),2.5 µM,> 20 µM,> 20 µM,> 20 µM,–,–,–,–,–,–,–,–,0.11%,0.45%,0.13%,–
CC[C@@H](C)[C@@H](NC(=O)[C@@H](Cc1c[nH]c2ccccc12)NC(=O)[C@H](NC(=O)[C@@H](CC(C)C)NC(=O)[C@H](N)Cc1c[nH]c2ccccc12)C(C)C)C(=O)NCC(=O)N[C@H](CC(C)C)C(=O)N[C@H](CCCNC(=N)N)C(=O)N[C@H](CCCCN)C(=O)N[C@H](CCCCN)C(=O)N[C@H](CCCNC(=N)N)C(N)=O [WCopWV] (H-[dW][dL][dV][dW][dI]G[dL][dR][dK][dK][dR]-NH2),1.25 µM,2.5 µM,10 µM,2.5 µM,–,–,–,–,–,–,–,–,–,–,–,–
CC[C@@H](C)[C@@H](NC(=O)[C@@H](Cc1c[nH]c2ccccc12)NC(=O)[C@@H](CC(C)C)NC(=O)[C@@H](CC(C)C)NC(=O)[C@@H](Cc1c[nH]c2ccccc12)NC(=O)[C@@H](N)CO)C(=O)NCC(=O)N[C@H](CC(C)C)C(=O)N[C@H](CCCNC(=N)N)C(=O)N[C@H](CCCCN)C(=O)N[C@H](CCCCN)C(=O)N[C@H](CCCNC(=N)N)C(N)=O [WCopW19] (H-S[dW][dL][dL][dW][dI]G[dL][dR][dK][dK][dR]-NH2),2.5 µM,2.5 µM,10 µM,2.5 µM,–,–,–,–,–,–,–,–,4.32%,10.57%,7.26%,–
CC[C@@H](C)[C@@H](NC(=O)[C@@H](Cc1c[nH]c2ccccc12)NC(=O)[C@@H](CC(C)C)NC(=O)[C@@H](CC(C)C)NC(=O)[C@H](N)Cc1c[nH]c2ccccc12)C(=O)NCC(=O)N[C@H](CC(C)C)C(=O)N[C@H](CCCNC(=N)N)C(=O)N[C@H](CCCCN)C(=O)N[C@H](CCCCN)C(=O)N[C@H](CCCNC(=N)N)C(N)=O [WCopW5] (H-[dW][dL][dL][dW][dI]G[dL][dR][dK][dK][dR]-NH2),1.25 µM,2.5 µM,10 µM,1.25 µM,–,–,–,–,–,–,–,–,2.99%,11.60%,7.77%,1.84 µg/mL
CC[C@@H](C)[C@@H](NC(=O)[C@@H](Cc1c[nH]c2ccccc12)NC(=O)[C@@H](CCC(=O)O)NC(=O)[C@@H](CC(C)C)NC(=O)[C@H](N)Cc1c[nH]c2ccccc12)C(=O)NCC(=O)N[C@H](CC(C)C)C(=O)N[C@H](CCCNC(=N)N)C(=O)N[C@H](CCCCN)C(=O)N[C@H](CCCCN)C(=O)N[C@H](CCCNC(=N)N)C(N)=O [WCopWE] (H-[dW][dL][dE][dW][dI]G[dL][dR][dK][dK][dR]-NH2),10 µM,>20 µM,>20 µM,>20 µM,–,–,–,–,–,–,–,–,–,–,–,–
HLLWIALRKK-NH2 [HCopW],>20 µM,>20 µM,>20 µM,>20 µM,–,–,–,–,–,–,–,–,–,–,–,–
"CC[C@H](C)[C@H](NC(=O)[C@H](Cc1c[nH]c2ccccc12)NC(=O)[C@H](CC(C)C)NC(=O)[C@H](CC(C)C)NC(=O)[C@@H](N)Cc1c(C(C)(C)C)[nH]c2c(C(C)(C)C)cc(C(C)(C)C)cc12)C(=O)N[C@@H](C)C(=O)N[C@@H](CC(C)C)C(=O)N[C@@H](CCCNC(=N)N)C(=O)N[C@@H](CCCCN)C(=O)N[C@@H](CCCCN)C(N)=O [WtCopW] (H-[Trp(2,5,7-tBu3)]LLWIALRKK-NH2)",10 µM,20 µM,> 20 µM,5 µM,–,–,–,–,–,–,–,–,–,–,–,–
CC[C@@H](C)[C@@H](NC(=O)[C@@H](Cc1c[nH]c2ccccc12)NC(=O)[C@@H](CCCCN)NC(=O)[C@@H](CC(C)C)NC(=O)[C@H](N)Cc1c[nH]c2ccccc12)C(=O)NCC(=O)N[C@H](CC(C)C)C(=O)N[C@H](CCCNC(=N)N)C(=O)N[C@H](CCCCN)C(=O)N[C@H](CCCCN)C(=O)N[C@H](CCCNC(=N)N)C(N)=O [WCopWK] (H-[dW][dL][dK][dW][dI]G[dL][dR][dK][dK][dR]-NH2),>20 µM,>20 µM,>20 µM,>20 µM,–,–,–,–,–,–,–,–,–,–,–,–
SLLWIALRKK-NH2 [SCopW],>20 µM,>20 µM,>20 µM,>20 µM,–,–,–,–,–,–,–,–,–,–,–,–
